Laboratory results reported in ChEMBL document CHEMBL1151373, “Antitumor agents. 49 tricin, kaempferol-3-O-beta-D-glucopyranoside and (+)-nortrachelogenin, antileukemic principles from Wikstroemia indica” (1981).

Legend:
Format in all cases: functional
P388 [1] = assay: Cytotoxicity against mouse P388 cells xenografted in BDF1 mouse at 12.5 mg/kg relative to control
P388 [2] = assay: Cytotoxicity against mouse P388 cells xenografted in BDF1 mouse at 6 mg/kg relative to control
[3] = Growth inhibition of mouse EAC cells xenografted in CF1 mouse at 3 mg/kg/day, ip; conditions: Ehrlich, route intraperitoneal
P388 [4] = assay: Cytotoxicity against mouse P388 cells xenografted in CDF1 mouse at 2 mg/kg relative to control
P388 [5] = assay: Cytotoxicity against mouse P388 cells xenografted in BDF1 mouse at 16 mg/kg relative to control
P388 [6] = assay: Cytotoxicity against mouse P388 cells xenografted in BDF1 mouse at 8 mg/kg relative to control
P388 [7] = assay: Cytotoxicity against mouse P388 cells xenografted in CDF1 mouse at 10 mg/kg relative to control
P388 [8] = assay: Cytotoxicity against mouse P388 cells xenografted in CDF1 mouse at 16 mg/kg relative to control
P388 [9] = assay: Cytotoxicity against mouse P388 cells xenografted in BDF1 mouse at 4 mg/kg relative to control
P388 [10] = assay: Cytotoxicity against mouse P388 cells xenografted in CDF1 mouse at 4 mg/kg relative to control
P388 [11] = assay: Cytotoxicity against mouse P388 cells xenografted in CDF1 mouse at 1 mg/kg relative to control

SMILES: O=c1c(O[C@@H]2O[C@H](CO)[C@@H](O)[C@H](O)[C@H]2O)c(-c2ccc(O)cc2)oc2cc(O)cc(O)c12 [ASTRAGALIN]
- T/C (P388 [1]): 130%
- T/C (P388 [2]): 122%

SMILES: COc1cc2cc(Oc3ccc4ccc(=O)oc4c3)c(=O)oc2cc1O [DAPHNORETIN]
- inhibition in vivo at 3 mg/kg/day [3]: 97%

SMILES: COc1cc(-c2cc(=O)c3c(O)cc(O)cc3o2)cc(OC)c1O [TRICIN]
- T/C (P388 [1]): 174%
- T/C (P388 [2]): 133%

SMILES: COc1cc(C[C@@H]2COC(=O)[C@@]2(O)Cc2ccc(O)c(OC)c2)ccc1O [WIKSTROMOL]
- T/C (P388 [4]): 141%
- T/C (P388 [5]): 130%
- T/C (P388 [6]): 130%
- T/C (P388 [7]): 146%
- T/C (P388 [8]): 154%
- T/C (P388 [9]): 122%
- T/C (P388 [10]): 137%
- T/C (P388 [11]): 130%
